Data from article PMC5007466, “VCP recruitment to mitochondria causes mitophagy impairment and neurodegeneration in models of Huntington's disease” (Nature Communications, 2016).

How the values were obtained:
[1] = tested on: HD patient-iPS cell derived neurons; experiment: LDH release after BDNF withdrawal; assay type: cell-based, human; conditions: 1 μM per day for 5 days, BDNF withdrawal 24 h
Procedure: Figure 4 HV-3 treatment reduces mitochondrial damage and cell death in HD cell cultures. Mouse HdhQ7 and HdhQ111 striatal cells were treated with control peptide TAT or peptide HV-3 (3 uM/day for 3 days). (a) Left panel: Mitochondrial membrane potential (MMP) was determined by TMRM fluorescent dye. Right panel: HdhQ111 cells were transfected with control siRNA (siCon) and VCP siRNA (siVCP) for three days. The MMP was determined by TMRM in HdhQ111 cells treated with TAT or HV-3. (b) Mitochondrial morphology was determined by staining cells with anti-Tom20 antibody. Scale bar: 10 μm. The percentage of cells with fragmented mitochondria relative to the total number of cells was quantitated. At least 100 cells per group were counted. (c) Mitochondrial morphology was determined by EM. The length of mitochondria and the number of mitophagosomes were quantitated. At least 90 mitochondria per group were counted. […] HMGB1 release into culture medium was determined by IB analysis with anti-HMGB1 antibody. […] Cell death was determined by the release of LDH. […] (g) Quantitation of neurite length of medium spiny neurons. At least 50 neurons per group were counted by an observer blind to experimental conditions. (h) Left: the MMP was determined by TMRM fluorescent dye. […] Mitochondrial length along neurites of DARPP32/Tuj1-positive neurons was quantitated. […]

[2] = tested on: HdhQ111 mouse striatal cells; experiment: GFP-LC3B puncta; assay type: cell-based; conditions: 3 uM/day for 3 days
Procedure: Figure 5 Treatment of HV-3 reduces excessive mitophagy in HD cell cultures and HD mouse brains. (a) HdhQ7 and HdhQ111 cells were treated with control siRNA (con) or VCP siRNA (siVCP) for 48 h. Mitochondria were isolated and LC3 mitochondrial levels were determined by WB. Representative blots are from three independent experiments. The quantitation of LC3 II levels on mitochondria is provided on the right. VADC was used as a loading control. (b) Flag-VCP and GFP-LC3B were co-transfected into wild-type striatal cells. Mitochondria were isolated after 36 h of transfection. The GFP-LC3B levels on mitochondria were examined by WB. VDAC was used as a loading control. Representative blots are from three independent experiments. Histogram: quantitation of GFP-LC3B mitochondrial protein level. HdhQ7 and HdhQ111 cells were treated with control peptide TAT or peptide HV-3 (3 uM/day for 3 days). (c) HdhQ111 cells were transfected with GFP-LC3B for 24 h. The number of GFP-LC3B puncta was quantitated and shown in the histogram. Scale bars: 10 μm. (d) Enzyme activity of lysosomal Cathepsin B was measured using a Cathepsin B assay kit. […] (e) Mitochondrial mass was measured by the fluorescent density of Mitotracker green. […] Histogram: the number of mitophagosomes per 100 μm^2 was counted and quantitated. Fifteen random areas in the striatum of each animal were analyzed. […]

YAC128 mice = experiment: EM of striatal mitophagosomes; assay type: in vivo, mouse; conditions: YAC128, 3 mg kg^−1 per day, age 3–9 months, per 100 μm^2
Excerpt: The HdhQ7 and HdhQ111 cells were fixed by 2.5% glutaraldehyde in 0.1 M cacodylate buffer. Small pieces of the striata tissue of mice were fixed by immersion in triple aldehyde-DMSO. After rinsing in 0.1 M phosphate buffer (pH 7.3), the samples were post-fixed in ferrocyanide-reduced osmium tetroxide.
The above fixed samples were rinsed by water followed by overnight soaking in acidified uranyl acetate. After rinsing in distilled water, the blocks were dehydrated in ascending concentrations of ethanol, passed through propylene oxide, and embedded in Poly/Bed resin. Thin sections were sequentially stained with acidified uranyl acetate followed by a modification of Sato's triple lead stain. These sections were examined in a FEI Tecnai Spirit (T12) transmission electron microscope with a Gatan US4000 4kx4k CCD at the Case Western Reserve University EM core facility. Mitochondria from 15 random areas in each group were imaged by an experimenter blind to the experimental groups. The length of mitochondria was measured by NIH Image J software. The number of mitophagosomes per 100 μm^2 was counted. The number of gold particles labelling VCP on mitochondria were quantitated.
YAC128 mice (Tg) and their age-matched wt littermates were implanted with an osmotic pump containing TAT control peptide or HV-3 peptide (3 mg/kg/day, each) starting from the age of 3 months. […]

CSCC[C@H](NC(=O)[C@@H](NC(=O)[C@H](CC(C)C)NC(=O)[C@@H](NC(=O)[C@H](Cc1c[nH]cn1)NC(=O)CCCCCNC(=O)[C@H](CCCNC(=N)N)NC(=O)[C@H](CCCNC(=N)N)NC(=O)[C@H](CCCNC(=N)N)NC(=O)[C@H](CCC(N)=O)NC(=O)[C@H](CCCNC(=N)N)NC(=O)[C@H](CCCNC(=N)N)NC(=O)[C@H](CCCCN)NC(=O)[C@H](CCCCN)NC(=O)[C@H](CCCNC(=N)N)NC(=O)CNC(=O)[C@@H](N)Cc1ccc(O)cc1)C(C)C)C(C)C)C(=O)N[C@@H](CS)C(=O)N[C@@H](C)C(=O)N[C@H](C(N)=O)[C@@H](C)O [HV-3]
neuronal cell death [1]: suppressed neuronal cell death | number of GFP-LC3B puncta [2]: reduced by treatment with HV-3 | number of mitophagosomes in striatum (YAC128 mice): reduced by HV-3 treatment
